Results reported in US4175123A, “Amino-sugar derivatives, process for their preparation and pharmaceutical composition thereof” (Bayer Aktiengesellschaft, priority 1976, dated 1979).

What was measured:
[1] = system: small intestine of fasting male Wistar rats (glucose absorption); test: In vitro method for the inhibition of glucose absorption (small intestine rings, D-glucose-14C); design: species or system rat (male Wistar); settings: Rattus norvegicus, 2 min; 10 mg/ml; 2 minutes at 37° C., pH 7.4, D-glucose-14C 10 mg/ml
Method: In vitro method for the inhibition of glucose absorption
The upper part of the small intestine of fasting male Wistar rats is folded over and cut into rings about 3 mm wide. 10 of these rings (~150 mg moist weight) are incubated for 2 minutes at 37° C. in 5 ml of Krebs-Ringer bicarbonate buffer (pH 7.4) with D-glucose-^14 C (U) (10 mg/ml, 0.2 μCi/ml), with the addition of the active compounds. The washed and dried-off intestine rings are weighted, dissolved in 5 ml of Digestin (Merck)/isopropanol (1:1) and the radioactivity absorbed in the tissue is determined in a liquid scintillation counter. All values are corrected using the radioactivity absorbed in the tissue as D-mannitol-1-^14 C.
In vitro inhibitions of the glucose absorption by some selected compounds (10 mg/ml): […]

[2] = system: glucosidase; test: Sucrose feeding test: postprandial blood sugar after oral sucrose + glucosidase inhibitor in fasting rats; format: in vivo, rat
Method: (§1) The in vivo activity of the compound was tested on some examples using the experimental arrangement described in the following text.
(§2) Oral administration of starch or sucrose causes a rise in the blood sugar in warm-blooded animals, provided that the carbohydrates are enzymatically degraded in the small intestine to monosaccharides. The inhibition of their enzymatic hydrolysis by glucosidase inhibitors causes a reduced rise in the blood sugar.
(§3) In order to detect the action of glucosidase inhibitors, 6 fasting rats receive perorally, 1 g of broiled starch or 2.5 g of sucrose/kg in the form of an aqueous suspension or in the form of an aqueous solution (starch and sucrose control respectively). An equal number of rats receive the glucosidase inhibitor in the dose indicated, together with the same amount of the carbohydrate concerned. An equal volume of physiological sodium chloride solution is administered orally to a further six rats (control). After administration of the carbohydrate concerned±glucosidae inhibitor, the postprandial change in blood sugar is measured, at the times indicated, in blood from the postorbital venous plexus in an auto-analyser according to the method of W. S. Hoffmann [J biol. Chem 120, 51 (1937)].

[3] = system: glucosidase; test: Starch feeding test: postprandial blood sugar after oral starch + glucosidase inhibitor in fasting rats; format: in vivo, rat; settings: for Blood sugar ± standard deviation, 15 minutes: starch control 131 ± 7.2, fasting control 60 ± 4.2; for Blood sugar ± standard deviation, 30 minutes: starch control 113 ± 9.2, fasting control 62 ± 3.4
Method: as §1, §2, §3

[4] = target: T1, intestinal disaccharidase complex (saccharase) (Sus scrofa, UniProt P56729); test: In vitro saccharase inhibition test; format: biochemical, pig; settings: for specific inhibitory activity (saccharase inhibitor units per gram): pH 6.25, 37° C., 20 minutes, sucrose substrate
T1 construct: both subunits cut from one SI precursor
T1 sequence (P56729 with tags, fused parts or gaps): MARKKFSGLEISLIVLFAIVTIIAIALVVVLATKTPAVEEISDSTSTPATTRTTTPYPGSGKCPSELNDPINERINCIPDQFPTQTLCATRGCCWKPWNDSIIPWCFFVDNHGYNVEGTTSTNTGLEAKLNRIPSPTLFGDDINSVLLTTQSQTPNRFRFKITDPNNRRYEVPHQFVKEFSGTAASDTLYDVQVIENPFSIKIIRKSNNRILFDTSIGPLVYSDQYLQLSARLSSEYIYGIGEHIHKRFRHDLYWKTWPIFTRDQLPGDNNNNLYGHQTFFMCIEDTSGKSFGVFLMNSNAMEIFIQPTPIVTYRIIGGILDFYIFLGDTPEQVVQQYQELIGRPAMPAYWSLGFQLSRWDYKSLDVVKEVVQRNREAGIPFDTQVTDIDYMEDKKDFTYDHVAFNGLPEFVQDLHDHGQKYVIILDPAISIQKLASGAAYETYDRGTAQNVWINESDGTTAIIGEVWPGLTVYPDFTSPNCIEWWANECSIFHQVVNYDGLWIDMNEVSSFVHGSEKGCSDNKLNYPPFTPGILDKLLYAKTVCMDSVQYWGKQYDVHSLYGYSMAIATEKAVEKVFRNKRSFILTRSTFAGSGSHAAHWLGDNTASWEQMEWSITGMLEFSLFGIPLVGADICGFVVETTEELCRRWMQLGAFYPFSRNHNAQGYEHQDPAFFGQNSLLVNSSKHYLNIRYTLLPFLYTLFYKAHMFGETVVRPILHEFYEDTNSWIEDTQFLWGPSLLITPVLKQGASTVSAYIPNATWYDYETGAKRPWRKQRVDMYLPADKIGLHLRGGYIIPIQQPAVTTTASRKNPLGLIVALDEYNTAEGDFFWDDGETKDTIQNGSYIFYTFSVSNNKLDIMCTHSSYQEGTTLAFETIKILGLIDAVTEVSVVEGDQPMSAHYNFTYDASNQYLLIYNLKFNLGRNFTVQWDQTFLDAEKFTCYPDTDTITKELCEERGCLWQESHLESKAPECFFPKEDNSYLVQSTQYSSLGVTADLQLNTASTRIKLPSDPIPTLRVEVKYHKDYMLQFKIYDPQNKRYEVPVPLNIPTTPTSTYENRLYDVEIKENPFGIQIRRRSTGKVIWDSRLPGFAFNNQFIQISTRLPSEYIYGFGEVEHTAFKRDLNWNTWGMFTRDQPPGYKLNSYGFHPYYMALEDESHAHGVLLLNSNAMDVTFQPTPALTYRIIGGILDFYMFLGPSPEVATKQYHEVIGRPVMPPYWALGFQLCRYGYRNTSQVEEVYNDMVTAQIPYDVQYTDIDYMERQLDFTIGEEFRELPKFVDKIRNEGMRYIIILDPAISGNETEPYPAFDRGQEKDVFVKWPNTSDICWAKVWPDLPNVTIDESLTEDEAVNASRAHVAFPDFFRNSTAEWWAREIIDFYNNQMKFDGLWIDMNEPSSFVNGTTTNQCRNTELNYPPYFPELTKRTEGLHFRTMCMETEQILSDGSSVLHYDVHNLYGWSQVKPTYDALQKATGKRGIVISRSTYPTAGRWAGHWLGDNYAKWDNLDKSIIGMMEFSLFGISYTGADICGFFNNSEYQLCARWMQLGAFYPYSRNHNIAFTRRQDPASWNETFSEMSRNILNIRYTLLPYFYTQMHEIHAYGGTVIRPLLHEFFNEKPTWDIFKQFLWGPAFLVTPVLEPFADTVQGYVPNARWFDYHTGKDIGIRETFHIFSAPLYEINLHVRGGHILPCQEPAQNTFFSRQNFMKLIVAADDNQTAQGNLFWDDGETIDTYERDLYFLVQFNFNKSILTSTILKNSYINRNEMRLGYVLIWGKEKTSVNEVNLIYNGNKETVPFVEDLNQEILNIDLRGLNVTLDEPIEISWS
From the text: In vitro saccharase inhibition test
The in vitro saccharase inhibition test makes it possible to determined the enzyme inhibitory activity of a sample by comparing the activity of the solubilised intestinal disaccharidase complex in the presence of the inhibitor with its activity in the absence (so-called 100% value) of the inhibitor. A virtually glucose-free (<100 ppm) saccharose is used here as the substrate, which determines the specificity of the inhibition test; the enzyme activity determination is based on the colorometric determination of liberated glucose by means of glucoseoxydase, peroxydase and 2,2-azino-di-[3-ethyl-benzthiazoline-6-sulphonate] (=ABTS) as the chromogen.
A saccharase inhibitor unit (SIU) is defined as that inhibitory activity which reduces a given saccharolytic activity in a defined test batch by one unit (saccharase unit=SU); the saccharase unit is defined here as that enzyme activity which, under given conditions, in one minute splits 1 μmol of sucrose and thus leads to the liberation of 1 μmol each of glucose, which is determine in the test, and fructose, which is not detected in the test.
The intestinal disaccharidase complex is obtained from pig's small intestine mucosa by trypsin digestion, precipitation from 66% ethanol at -20° C., taking up of the precipitate in 100 mM phosphate buffer of pH 7.0 and concluding dialysis against the same buffer.
100 μl of a dilution of the intestinal disaccharidase complex in 0.1 M maleate buffer of pH 6.25 are added to 10 μl of a sample solution which is diluted so that the extinction of the test batch is at least 10%, but not more than 25%, below that of the 100% value, and the mixture is pre-incubated for 10 minutes at 37° C. The dilution of the disaccharidase complex is to be adjusted to an activity of 0.05 SU/ml. […] In order to develop the colour, the mixture is incubated for 30 minutes at 37° C., after which it is diluted with 2 ml of tris buffer and measured photometrically at 420 nm against a reagent blank (with enzyme but without sucrose). […]

[5] = 0.92 mg/kg perorally + 1 g starch/kg
[6] = 0.65 mg/kg perorally + 1 g starch/kg

Structure (SMILES): C[C@H]1O[C@H](O[C@H]2[C@H](O)[C@@H](O)[C@@H](O[C@H]3[C@H](O)[C@@H](O)[C@H](Oc4cccc(C(=O)O)c4)O[C@@H]3CO)O[C@@H]2CO)[C@H](O)[C@@H](O)[C@@H]1N[C@H]1C=C(CO)[C@@H](O)[C@H](O)[C@H]1O [Example 1, 5, m-Carboxyphenyl-O-{C}-(1→4)-O-α-D-glcp-(1→4)-β-D- glucopyranoside]
- inhibition at 10000 µg/mL [1]: > 50%

Structure (SMILES): C[C@H]1O[C@H](O[C@H]2[C@H](O)[C@@H](O)[C@@H](O[C@H]3[C@H](O)[C@@H](O)[C@H](Oc4ccc(C(=O)O)cc4)O[C@@H]3CO)O[C@@H]2CO)[C@H](O)[C@@H](O)[C@@H]1N[C@H]1C=C(CO)[C@@H](O)[C@H](O)[C@H]1O [Example 1, 7, p-Carboxyphenyl-O-{C}-(1→4)-O-α-D-glcp-(1→4)-β-D- glucopyranoside]
- inhibition at 10000 µg/mL [1]: 25 to 50%
- Blood sugar ± standard deviation, 15 minutes ([2]; 0.92 mg/kg perorally + 2.5 g sucrose/kg, sucrose control 128 ± 8.0, fasting control 60 ± 4.6): 110 ± 3.4 mg/dL
- Blood sugar ± standard deviation, 30 minutes ([2]; 0.92 mg/kg perorally + 2.5 g sucrose/kg, sucrose control 133 ± 8.7, fasting control 64 ± 3.7): 118 ± 14 mg/dL
- Blood sugar ± standard deviation, 45 minutes ([2]; 0.92 mg/kg perorally + 2.5 g sucrose/kg, sucrose control 134 ± 6.1, fasting control 73 ± 7.1): 112 ± 10 mg/dL
- Blood sugar ± standard deviation, 60 minutes ([2]; 0.92 mg/kg perorally + 2.5 g sucrose/kg, sucrose control 119 ± 10, fasting control 66 ± 4.2): 117 ± 9.0 mg/dL
- Blood sugar ± standard deviation, 15 minutes [3, 5]: 121 ± 7.7 mg/dL
- Blood sugar ± standard deviation, 30 minutes [3, 5]: 112 ± 4.3 mg/dL

Structure (SMILES): C[C@H]1O[C@H](O[C@H]2[C@H](O)[C@@H](O)[C@@H](O[C@H]3[C@H](O)[C@@H](O)[C@H](Oc4ccc(O)cc4)O[C@@H]3CO)O[C@@H]2CO)[C@H](O)[C@@H](O)[C@@H]1N[C@H]1C=C(CO)[C@@H](O)[C@H](O)[C@H]1O [Example 1, 8, p-Hydroxyphenyl-O-{C}-(1→4)-O-α-D-glcp-(1→4)-β-D- glucopyranoside]
- inhibition at 10000 µg/mL [1]: 25 to 50%
- Blood sugar ± standard deviation, 15 minutes ([2]; 0.65 mg/kg perorally + 2.5 g sucrose/kg, sucrose control 128 ± 8.0, fasting control 60 ± 4.6): 112 ± 3.1 mg/dL
- Blood sugar ± standard deviation, 30 minutes ([2]; 0.65 mg/kg perorally + 2.5 g sucrose/kg, sucrose control 133 ± 8.7, fasting control 64 ± 3.7): 114 ± 6.3 mg/dL
- Blood sugar ± standard deviation, 45 minutes ([2]; 0.65 mg/kg perorally + 2.5 g sucrose/kg, sucrose control 134 ± 6.1, fasting control 73 ± 7.1): 119 ± 9.4 mg/dL
- Blood sugar ± standard deviation, 60 minutes ([2]; 0.65 mg/kg perorally + 2.5 g sucrose/kg, sucrose control 119 ± 10, fasting control 66 ± 4.2): 112 ± 4.3 mg/dL
- Blood sugar ± standard deviation, 15 minutes [3, 6]: 112 ± 9.9 mg/dL
- Blood sugar ± standard deviation, 30 minutes [3, 6]: 109 ± 12 mg/dL

Structure (SMILES): C[C@H]1O[C@H](O[C@H]2[C@H](O)[C@@H](O)[C@@H](O[C@H]3[C@H](O)[C@@H](O)[C@H](Oc4ccc(C(C)(C)C)cc4)O[C@@H]3CO)O[C@@H]2CO)[C@H](O)[C@@H](O)[C@@H]1N[C@H]1C=C(CO)[C@@H](O)[C@H](O)[C@H]1O [Example 1, 9, p-tert-Butylphenyl-O-{C}-(1→4)-O-α-D-glcp-(1→4)-β-D glucopyranoside]
- inhibition at 10000 µg/mL [1]: > 50%
- Blood sugar ± standard deviation, 15 minutes ([2]; 3.0 mg/kg perorally + 2.5 g sucrose/kg, sucrose control 134 ± 13, fasting control 71 ± 3.7): 85 ± 4.8 mg/dL
- Blood sugar ± standard deviation, 30 minutes ([2]; 3.0 mg/kg perorally + 2.5 g sucrose/kg, sucrose control 116 ± 20, fasting control 70 ± 5.3): 83 ± 7.9 mg/dL
- Blood sugar ± standard deviation, 45 minutes ([2]; 3.0 mg/kg perorally + 2.5 g sucrose/kg, sucrose control 125 ± 8.6, fasting control 77 ± 5.5): 88 ± 3.4 mg/dL
- Blood sugar ± standard deviation, 60 minutes ([2]; 3.0 mg/kg perorally + 2.5 g sucrose/kg, sucrose control 112 ± 15, fasting control 78 ± 7.3): 92 ± 9.4 mg/dL

Structure (SMILES): CCCCCCCCCCCCCCCCO[C@@H]1O[C@H](CO)[C@@H](O[C@H]2O[C@H](CO)[C@@H](O[C@H]3O[C@H](C)[C@@H](N[C@H]4C=C(CO)[C@@H](O)[C@H](O)[C@H]4O)[C@H](O)[C@H]3O)[C@H](O)[C@H]2O)[C@H](O)[C@H]1O [Example 4, 18, n-Hexadecyl-O-{C}-(1→4)-O-α-D-glcp-(1→4)-β-D-glucopyranoside]
- inhibition at 10000 µg/mL [1]: > 50%

Structure (SMILES): C[C@H]1O[C@H](O[C@H]2[C@H](O)[C@@H](O)[C@@H](O[C@H]3[C@H](O)[C@@H](O)C(O)O[C@@H]3CO)O[C@@H]2CO)[C@H](O)[C@@H](O)[C@@H]1N[C@H]1C=C(CO)[C@@H](O)[C@H](O)[C@H]1O (stereo partly drawn) [compound of the formula I (page 2) with m=0 and n=2]
- specific inhibitory activity (saccharase inhibitor units per gram) [4]: 68,000 SIU/g

Structure (SMILES): C[C@H]1O[C@H](O[C@H]2[C@H](O)[C@@H](O)[C@@H](O[C@H]3[C@H](O)[C@@H](O)C(O)O[C@@H]3CO)O[C@@H]2CO)[C@H](O)[C@@H](O)[C@@H]1N[C@H]1C=C(CO)[C@@H](O)[C@H](O)[C@H]1O (stereo partly drawn) [compound with P+q=2]
- specific inhibitory activity (saccharase inhibitor units per gram) [4]: 65,000 SIU/g

Structure (SMILES): C[C@H]1O[C@H](O[C@H]2[C@H](O)[C@@H](O)[C@@H](O[C@H]3[C@H](O)[C@@H](O)[C@@H](O[C@H]4[C@H](O)[C@@H](O)C(O)O[C@@H]4CO)O[C@@H]3CO)O[C@@H]2CO)[C@H](O)[C@@H](O)[C@@H]1N[C@H]1C=C(CO)[C@@H](O)[C@H](O)[C@H]1O (stereo partly drawn) [isomers with p=0 and q=3]
- in vitro sucrose inhibitory activity ([4]; isolated isomer): 19,000 SIU/g
